Here are results for 38 compounds from patent publication US7652006B2, “Substituted 1(2H)-phthalazinones and pharmaceutical compositions thereof” (Euro-Celtique S.A., priority 1998, dated 2010).

A word on the ED50: it is the dose that gives a 50% effect, or the effect in half of the subjects. The IC50 is the concentration that inhibits the measured activity by half. As a reminder, the melting point is the temperature of the solid-liquid transition.

The subject of series [1] is maximal electroshock induced convulsion. Description: Maximal Electroshock-induced Seizure (MES) test. It counts as in vivo, mice. The settings on record: iv, anticonvulsant activity against maximal electroshock induced convulsion; for ED50: Mus musculus. The text has this: The compounds of the present invention may be tested for […] anticonvulsant activity after iv or ip injection using a number of anticonvulsant tests in mice (audiogenic seizure model in DBA-2 mice. pentylenetetrazol-induced seizures in mice, maximum electroshock seizure test (MES)). The anticonvulsant activity of the AMPA antagonists may be evaluated in the Maximal Electroshock-induced Seizure (MES) test. Seizures are induced by application of current (50 mA, 60 pulses/sec, […], 1 sec duration, d.c.) through saline-coated corneal electrodes using a Ugo Basile ECT device (Model 7801). […] A tonic seizure is defined as a hindlimb extension in excess of 90 degrees from the plane of the body. Results are treated in a quintal manner. The potency of antagonism or potentiation for these compounds were determined by electrophysiological assay. Potencies of selective compounds described above in inhibiting or modulating AMPA receptors expressed in oocyte and their anticonvulsant activity against maximal electroshock induced convulsion are shown in Table 1.
Background: Protection in the maximal electroshock model is a classic sign of anticonvulsant action.

The subject of series [2] is AMPA receptors. Description: electrophysiological assay, AMPA receptors expressed in oocyte. The series is classed as cell-based, rat. The note with it: inhibiting or modulating AMPA receptors expressed in oocyte, read-out: AMPA IC50. The text has this:
The compounds of the present invention may be assessed by electrophysiological assays in Xenopus oocytes expressing rat whole brain poly(A)^+ RNA (see Keana et. al. J. Med. Chem. 38: 4367-4379 (1995)) or in cultured rat cortical neurons (see Woodward et. al. Mol. Pharmacol. 47: 568-581 (1995)) for AMPA receptor activity. Compounds which are useful for treating or preventing the adverse consequences of stroke, hypoglycemia, neurodegenerative disorders, anxiety, epilepsy or psychosis, or which induce analgesia, will inhibit the currents across the membranes of the oocyte expressing AMPA receptors. However, if the compound potentiates currents across the oocyte membrane, then the compound is expected to be useful in enhancing cognition or treating schizophrenia or neurodegenerative disease such as Parkinson's Disease.
The potency of antagonism or potentiation for these compounds were determined by electrophysiological assay. Potencies of selective compounds described above in inhibiting or modulating AMPA receptors expressed in oocyte and their anticonvulsant activity against maximal electroshock induced convulsion are shown in Table 1.

Structures can show the parent of a compound that is named as a salt. Where two headings read alike, the source gives them in different places.

With `CC(C)n1c(=O)nc(-c2ccc3c(c2)CCO3)c2cc3c(cc21)OCO3` [4-(2,3-Dihydrobenzofuran-5-yl)-1-isopropyl-6,7-methylenedioxyquinazolin-2(1H)-one], the ED50 in series [1] is 3.3 mg/kg. In addition, in series [2], the concentration for half-maximal inhibition (IC50) stood at 10 µM.
The matching figures for `CN(C)CCOc1nc(-c2ccc3c(c2)OCO3)c2cc3c(cc2n1)OCO3` [6,7-Methylenedioxy-4-(3,4-methylenedioxyphenyl)-2-(2-(dimethylamino)ethoxy)-quinazoline]: 4 mg/kg and 2.5 µM.
Turning to `c1ccc(-c2nc(-c3ccc4c(c3)OCO4)c3cc4c(cc3n2)OCO4)cc1`, the melting point lay in the range of 225 to 230 °C.
On to `[O-][n+]1c(CCl)nc2cc3c(cc2c1-c1ccc2c(c1)OCO2)OCO3` [2-Chloromethyl-6,7-methylenedioxy-4-(3,4-methylenedioxy-phenyl)quinazoline 3-oxide], for which, in series [1], the ED50 was determined as 3.1 mg/kg. The half-maximal inhibitory concentration (IC50) in series [2] came out at 8 µM.
In turn, `c1nc(-c2ccc3c(c2)OCO3)c2cc3c(cc2n1)OCO3` [6,7-Methylenedioxy-4-(3,4-methylenedioxyphenyl)quinazoline] had a melting point of 180 to 185 °C. Besides, in series [2], the IC50 was determined as 11 µM.
In the case of `CC(C)n1c(=O)nc(-c2ccc(N(C)C)cc2)c2cc3c(cc21)OCO3`, the melting point lay within 240 to 245 °C.
On to `CN(C)CCn1c(=O)nc(-c2ccc3c(c2)OCO3)c2cc3c(cc21)OCO3` [1-(2-(dimethylamino)ethyl)-6,7-methylenedioxy-4-(3,4-methylenedioxyphenyl)quinazolin-2-(1H)-one hydrochloride], for which, in series [1] (hydrochloride), the “MES ED50” value amounted to 8.1 mg/kg. Moreover, the 50% inhibitory concentration (IC50) in series [2] (hydrochloride) was 1.1 µM.
Compound `CC(C)n1c(=O)nc(-c2ccc3c(c2)OC(F)(F)O3)c2cc3c(cc21)OCO3` [1-Isopropyl-6,7-methylenedioxy-4-(3,4-difluoromethylenedioxyphenyl)quinazolin-2(1H)-one] gave a melting point of 243 to 245 °C. The IC50 in series [2] was determined as 2 µM.
`CC(CN(C)C)On1c(=O)nc(-c2ccc3c(c2)OCO3)c2cc3c(cc21)OCO3` (stereo not shown) came in with a melting point of 160 to 165 °C.
The same measure, in the same setting: the result for `COc1nc(-c2ccc3c(c2)OCO3)c2cc3c(cc2n1)OCO3` reads 216 to 223 °C.
As to `O=c1c2cc3c(cc2c(-c2ccc4c(c2)OCO4)nn1CCN1CCCC1)OCO3` [2-[2-(1-Pyrrolidinyl)ethyl]-4-(3,4-methylenedioxyphenyl)-6,7-methylenedioxy-1(2H)-phthalazinone], the ED50 in series [1] came out at 3.8 mg/kg. In series [2], the half-maximal inhibitory concentration (IC50) was 10 µM.
The compound `c1cn(Cc2nc(-c3ccc4c(c3)OCO4)c3cc4c(cc3n2)OCO4)cn1` registered a melting point of 182 to 185 °C.
Take `CCn1c(=O)nc(-c2ccc3c(c2)OCO3)c2cc3c(cc21)OCO3` [1-Ethyl-6,7-methylenedioxy-4-(3,4-methylenedioxyphenyl)quinazolin-2(1H)-one]: the median effective dose (ED50) in series [1] came out at 3.4 mg/kg. Further, the IC50 in series [2] turned out to be 5 µM.
The like results for `CC(C)n1c(=O)nc(-c2ccc3c(c2)OCO3)c2cc3oc(=O)n(C)c3cc21` [1-Isopropyl-4-(3,4-methylenedioxyphenyl)-8-methyl-7-oxo-oxazol[5,4-g]quinazolin-2(1H)-one] were, in that order, 1.5 mg/kg and 2 µM.
Turning to `CCOCCn1c(=O)nc(-c2ccc3c(c2)OCO3)c2cc3c(cc21)OCO3` [1-[(2-Ethoxy)ethyl]-6,7-methylenedioxy-4-(3,4-methylenedioxyphenyl)quinazoline-2-one], the 50% effective dose (ED50) in series [1] stood at 10 mg/kg. Besides, in series [2], the concentration for half-maximal inhibition (IC50) was 8 µM.
Take `O=c1nc(-c2ccc3c(c2)OCO3)c2cc3c(cc2[nH]1)OCO3`: the melting point was > 300 °C.
Still for that read-out and setting: the same measure for `O=c1nc(-c2ccccc2)c2cc3c(cc2[nH]1)OCO3`: 351 to 354 °C.
`CC(C)n1c(=O)nc(-c2ccc3c(c2)OCCO3)c2cc3c(cc21)OCO3` [1-Isopropyl-6,7-methylenedioxy-4-(3,4-ethylenedioxyphenyl)-quinazolin-2(1H)-one] yielded a melting point of 214 to 217 °C. Further, the half-maximal inhibitory concentration (IC50) in series [2] came out at 1.8 µM.
Take `CN(C)CCOc1nc(-c2ccc3c(c2)OCO3)c2cc3c(cc2n1)OCO3.Cl` [6,7-methylenedioxy-4-(3,4-methylenedioxyphenyl)-2-(2-(dimethylamino)ethoxy)quinazoline hydrochloride]: the ED50 in series [1] is 10 mg/kg. The IC50 in series [2] (hydrochloride) was determined as 10 µM.
As to `NCCOc1nc(-c2ccc3c(c2)OCO3)c2cc3c(cc2n1)OCO3` [2-(2-Aminoethoxy)-6,7-methylenedioxy-4-(3,4-methylenedioxyphenyl)quinazoline], the melting point lay within 162 to 167 °C. Besides, the IC50 in series [2] is 12 µM.
`CC(=O)OCc1nc(-c2ccc3c(c2)OCO3)c2cc3c(cc2n1)OCO3` came in with a melting point of 144 to 147 °C.
Regarding `CC(C)n1c(=O)nc(-c2ccc3ocnc3c2)c2cc3c(cc21)OCO3` [1-Isopropyl-6,7-methylenedioxy-4-(5-benzoxazole)quinazolin-2(1H)-one], the melting point lay within 241 to 243 °C. In series [2], the IC50 came out at 13 µM.
Compound `CC(C)n1c(=O)nc(-c2ccc3c(c2)CCC3)c2cc3c(cc21)OCO3` [1-Isopropyl-6,7-methylenedioxy-4-(5-indanyl)quinazolin-2(1H)-one] registered a melting point of 73 to 75 °C. In addition, the half-inhibitory concentration (IC50) in series [2] came to 5 µM.
The like results for `c1ncn(Cc2nc(-c3ccc4c(c3)OCO4)c3cc4c(cc3n2)OCO4)n1` [6,7-Methylenedioxy-2-(1,2,4-triazol-1-yl)methyl-4-(3,4-methylenedioxyphenyl)quinazoline] were, in that order, 195 to 198 °C and 9 µM.
For `NCCCc1nc(-c2ccc3c(c2)OCO3)c2cc3c(cc2n1)OCO3` [2-(3-aminopropyl)-6,7-methylenedioxy-4-(3,4-methylenedioxyphenyl)quinazoline], the IC50 in series [2] amounted to 12 µM.
For the compound `CC(CN(C)C)Oc1nc(-c2ccc3c(c2)OCO3)c2cc3c(cc2n1)OCO3` (stereo not shown), the melting point fell in the range of 172 to 175 °C.
In the case of `O=c1nc(-c2ccc3c(c2)OCO3)c2cc3c(cc2n1CCn1ccnc1)OCO3` [1-(Imidazol-1-yl)ethyl-6,7-methylenedioxy-4-(3,4-methylenedioxyphenyl)quinazoline-2-one], the IC50 in series [2] was determined as 5 µM.
Same read-out and setting: the same measure for `CN(C)Cc1nc2cc3c(cc2c(-c2ccc4c(c2)OCO4)[n+]1[O-])OCO3` [2-Dimethylaminomethyl-6,7-methylenedioxy-4-(3,4-methylenedioxyphenyl)quinazoline-3-oxide]: 10 µM.
Compound `Cn1ccnc1SCc1nc(-c2ccc3c(c2)OCO3)c2cc3c(cc2n1)OCO3` [2-[(1-Methyl-2-imidazolyl)thio]methyl-6,7-methylenedioxy-4-(3,4-methylenedioxy-phenyl)quinazoline] registered a melting point of 155 to 160 °C. Also, the IC50 in series [2] is 7 µM.
`Cn1c(=O)nc(-c2ccccc2)c2cc3c(cc21)OCO3`: the melting point fell in the range of 253 to 255 °C.
`O=c1nc(-c2ccc3c(c2)OCO3)c2cc3c(cc2n1CCN1CCOCC1)OCO3` [4-(4,4-methylenedioxyphenyl)-6,7-methylenedioxy-1-(2-morpholinylethyl)-quinazolin-2(1H)-one]: the concentration for half-maximal inhibition (IC50) in series [2] was 4 µM.
`c1cc2c(cc1-c1nc(OCC3CC3)nc3cc4c(cc13)OCO4)OCO2`: the melting point was in the range of 175 to 182 °C.
In the case of `C#CCn1c(=O)nc(-c2ccc3c(c2)OCO3)c2cc3c(cc21)OCO3` [1-(2-Propynyl)-6,7-methylenedioxy-4-(3,4-methylenedioxyphenyl)quinazolin-2(1H)-one], the melting point fell in the range of 235 to 240 °C. Besides, the IC50 in series [2] stood at 7 µM.
Take `Clc1nc(-c2ccc3c(c2)OCO3)c2cc3c(cc2n1)OCO3` [2-Chloro-4-(3,4-methylenedioxyphenyl)-6,7-methylendioxyquinazoline]: the IC50 in series [2] was 6 µM.
Turning to `CC(C)n1c(=O)nc(-c2cnc3ccccc3c2)c2cc3c(cc21)OCO3` [1-Isopropyl-6,7-methylenedioxy-4-(3-quinolyl)quinazolin-2(1H)-one], the melting point fell in the range of 279 to 281 °C. Also, the IC50 in series [2] came out at 8 µM.
The like results for `CCCn1c(=O)oc2cc3c(-c4ccc5c(c4)OCO5)nc(=O)n(C(C)C)c3cc21` [1-Isopropyl-4-(3,4-methylenedioxyphenyl)-8-propyl-7-oxo-oxazol[5,4-g]quinazolin-2(1H)-one] were, in that order, 110 to 145 °C and 5 µM.
Regarding `Cc1nc2cc3c(cc2c(-c2ccc4c(c2)OCO4)[n+]1[O-])OCO3` [2-Methyl-6,7-methylenedioxy-4-(3,4-methylenedioxyphenyl)quinazoline 3-oxide], the concentration for half-maximal inhibition (IC50) in series [2] was 4 µM.
On the same count and under the same terms, the same measure for `c1cn(CCOc2nc(-c3ccc4c(c3)OCO4)c3cc4c(cc3n2)OCO4)cn1` [2-[2-(Imidazol-1-yl)ethoxy]-6,7-methylenedioxy-4-(3,4-methylenedioxyphenyl)quinazoline]: 10 µM.
